Experimental findings from patent US10487088B2, “Tricyclic compound serving as immunomodulator” (Chia Tai Tianqing Pharmaceutical Group Co., Ltd., priority 2016, dated 2019) are described below.

What is called IC50 is the concentration that inhibits the measured activity by half.

In the experiment the target is T1, recombinant human IDO1 enzyme (Homo sapiens, UniProt P14902).
T1 construct: purchased NTRC NTRC-hlDO-10K
T1 sequence (P14902 whole entry): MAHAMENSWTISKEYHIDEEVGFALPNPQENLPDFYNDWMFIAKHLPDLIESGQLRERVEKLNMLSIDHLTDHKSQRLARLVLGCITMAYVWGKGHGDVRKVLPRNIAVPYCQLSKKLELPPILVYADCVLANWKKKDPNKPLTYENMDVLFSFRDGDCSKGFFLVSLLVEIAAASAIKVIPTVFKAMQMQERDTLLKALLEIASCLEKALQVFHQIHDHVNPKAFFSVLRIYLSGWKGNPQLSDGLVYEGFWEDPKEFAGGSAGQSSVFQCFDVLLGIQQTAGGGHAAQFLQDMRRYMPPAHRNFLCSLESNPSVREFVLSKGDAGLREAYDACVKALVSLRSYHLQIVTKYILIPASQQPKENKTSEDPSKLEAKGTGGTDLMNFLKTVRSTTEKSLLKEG
In words: In vitro hIDO1 enzyme activity test (NFK Green fluorescence). In kind it is biochemical. The following applies: recombinant human IDO1, L-tryptophan substrate, pH 6.5. Here is the method: The change of NFK production was detected by using the NFK Green™ fluorescent molecule, which is the metabolite of the IDO1 enzyme, and the IC50 value of the compound was used as an index, to evaluate the inhibitory effect of the compound on the recombinant human IDO1 enzyme.
IDO1 Enzyme Activity Assay Kit, NTRC # NTRC-hlDO-10K;
The compound was diluted to 1 mM in DMSO, and then diluted 3-fold in duplicate wells, with 10 gradients. 48 μL of 50 mM phosphate buffer (pH 6.5) was transferred to the compound plate via Bravo automated liquid handling platform. 2 μL of the diluted solution of the compound in DMSO was then added and mixed, followed by transferring 10 μL therein to an enzyme reaction plate.
The IDO1 enzyme was diluted to 20 nM in the reaction buffer (50 mM phosphate buffer pH 6.5, 0.1% Tween-20, 2% glycerol, 20 mM ascorbic acid, 20 μg/mL catalase and 20 μM methylene blue), and 20 μL of the solution was transferred to an enzyme reaction plate and incubated at 23° C. for 30 min. The reaction was started by adding 10 μL of 400 μM L-type tryptophan substrate and incubated at 23° C. for 90 min. 10 μL of NFK Green™ fluorescent dye was added, and the plate was sealed with the sealing film, incubated at 37° C. for 4 h, and then read on Envision Multimode Plate Reader (Ex 400 nm/Em 510 nm).
The control wells with the IDO1 enzyme but no compound was set as 0% inhibition, and the control wells without the IDO1 enzyme was set as 100% inhibition, and the IC50 value of the compound was calculated by analyzing the data with XLFit 5.
In the case of `OC(CC1c2nn(C(F)(F)F)cc2-c2cncn21)C1CCCCC1` (single isomer, unassigned) [Example 1, 1-cyclohexyl-2-(2-(trifluoromethyl)-2,8-dihydroimidazo[1′,5′:1,5]pyrrolo[3,4-c]pyrazol-8-yl)ethanol], the IC50 is above 10 µM.
Under `OC(CC1c2nn(C(F)(F)F)cc2-c2cncn21)C1CCCCC1` (single isomer, unassigned) [Example 2, 1-cyclohexyl-2-(2-(trifluoromethyl)-2,8-dihydroimidazo[1′,5′:1,5]pyrrolo[3,4-c]pyrazol-8-yl)ethanol] stands above 10 µM; under `OC(CC1c2nn(C(F)(F)F)cc2-c2cncn21)C1CCCCC1` (single isomer, unassigned) [Example 3, 1-cyclohexyl-2-(2-(trifluoromethyl)-2,8-dihydroimidazo[1′,5′:1,5]pyrrolo[3,4-c]pyrazol-8-yl)ethanol], above 10 µM; under `OC(CC1c2sccc2-c2cncn21)C1CCCCC1` (single isomer, unassigned) [Example 5, cyclohexyl-2-(8H-thieno[3′,2′:3,4]pyrrolo[1,2-c]imidazol-8-yl)ethanol], 5.03 µM.
Under `OC(CC1c2sccc2-c2cncn21)C1CCCCC1` (single isomer, unassigned) [Example 6, cyclohexyl-2-(8H-thieno[3′,2′:3,4]pyrrolo[1,2-c]imidazol-8-yl)ethanol] stands 9.67 µM.
Under `OC(CC1c2sccc2-c2cncn21)C1CCCCC1` (single isomer, unassigned) [Example 8, cyclohexyl-2-(8H-thieno[3′,2′:3,4]pyrrolo[1,2-c]imidazol-8-yl)ethanol] stands 0.0648 µM; under `c1cc2c(s1)C(C1CCCCC1)n1cncc1-2` (single isomer, unassigned) [Example 13, 8-cyclohexyl-8H-thieno[3,4]pyrrolo[1,5-a]imidazole], above 10 µM; under `c1cc2c(s1)C(CC1CCCCC1)n1cncc1-2` (single isomer, unassigned) [Example 15, 8-(cyclohexylmethyl)-8H-thieno[3,4]pyrrolo[1,5-a]imidazole], 5.22 µM.
Take `c1cc2c(s1)C(COC1CCCCC1)n1cncc1-2` (single isomer, unassigned) [Example 17, 8-((cyclohexyloxy)methyl)-8H-thieno[3′,2′:3,4]pyrrolo[1,2-c]imidazole]: the IC50 stood at 0.338 µM.
To `c1cc2c(s1)C(COC1CCCCC1)n1cncc1-2` (single isomer, unassigned) [Example 18, 8-((cyclohexyloxy)methyl)-8H-thieno[3′,2′:3,4]pyrrolo[1,2-c]imidazole] belongs above 10 µM; to `Fc1cc2c(s1)C(CCC1CCCCC1)n1cncc1-2` (single isomer, unassigned) [Example 19, 8-(2-cyclohexylethyl)-2-fluoro-8H-thieno[3′,2′:3,4]pyrrolo[1,2-c]imidazole], above 10 µM; to `Fc1cc2c(s1)C(CCC1CCCCC1)n1cncc1-2` (single isomer, unassigned) [Example 20, 8-(2-cyclohexylethyl)-2-fluoro-8H-thieno[3′,2′:3,4]pyrrolo[1,2-c]imidazole], 0.586 µM.
As for `FC1(F)CCC(CCC2c3sccc3-c3cncn32)CC1` (single isomer, unassigned) [Example 21, 8-(2-(4,4-difluorocyclohexyl)ethyl)-8H-thieno[3′,2′:3,4]pyrrolo[1,2-c]imidazole], the IC50 is 9.16 µM.
To `O=C1CC[C@H]2C[C@@H]([C@@H](O)CC3c4sccc4-c4cncn43)CCN12` (single isomer, unassigned) [Example 26] belongs above 10 µM.
For the compound `O=C1CC[C@H]2C[C@@H]([C@@H](O)CC3c4sccc4-c4cncn43)CCN12` (single isomer, unassigned) [Example 27], the IC50 was 0.869 µM.
For `c1cc2c(s1)C(C1CCCOC1)n1cncc1-2` (single isomer, unassigned) [Example 33, 8-(tetrahydro-2H-pyran-3-yl)-8H-thieno[3′,2′:3,4]pyrrolo[1,2-c]imidazole], the IC50 is above 10 µM.
Under `c1cc2c(s1)C(C1CCCOC1)n1cncc1-2` (single isomer, unassigned) [Example 34, 8-(tetrahydro-2H-pyran-3-yl)-8H-thieno[3′,2′:3,4]pyrrolo[1,2-c]imidazole] stands above 10 µM; under `c1cc2c(s1)C(C1CCCOC1)n1cncc1-2` (single isomer, unassigned) [Example 35, 8-(tetrahydro-2H-pyran-3-yl)-8H-thieno[3′,2′:3,4]pyrrolo[1,2-c]imidazole], 2.81 µM.
`c1cc2c(s1)C(C1CCCOC1)n1cncc1-2` (single isomer, unassigned) [Example 36, 8-(tetrahydro-2H-pyran-3-yl)-8H-thieno[3′,2′:3,4]pyrrolo[1,2-c]imidazole]: the IC50 was found to be 2.43 µM.
To `c1cc2c(s1)C(C1CCOCC1)n1cncc1-2` (single isomer, unassigned) [Example 37, 8-tetrahydropyran-4-8H-thieno[3,4]pyrrolo[1,5-a]imidazole] belongs 2.4 µM; to `c1cc2c(s1)C(C1CCOCC1)n1cncc1-2` (single isomer, unassigned) [Example 38, 8-tetrahydropyran-4-8H-thieno[3,4]pyrrolo[1,5-a]imidazole], above 10 µM; to `FC1(F)CCC([C@@H]2c3sccc3-c3cncn32)CC1` (single isomer, unassigned) [Example 40], above 10 µM.
For `OCC1(C2c3sccc3-c3cncn32)CCCCC1` (single isomer, unassigned) [Example 43, [1-(8H-thieno[3,4]pyrrolo[1,5-a]imidazol-8-yl)cyclohexyl]methanol], the IC50 is above 10 µM.
With `c1cc2c(s1)C(C1CCC3(CC1)CC3)n1cncc1-2` (single isomer, unassigned) [Example 44, 8-spiro[2.5]octan-6-yl-8H-thieno[3,4]pyrrolo[1,5-a]imidazole], the IC50 is above 10 µM.
To `c1cc2c(s1)C(C1CCC3(CC1)CC3)n1cncc1-2` (single isomer, unassigned) [Example 45, 8-spiro[2.5]octan-6-yl-8H-thieno[3,4]pyrrolo[1,5-a]imidazole] belongs 3.83 µM.
Under `c1cc2c(s1)C(C13CCC(CC1)CC3)n1cncc1-2` (single isomer, unassigned) [Example 48, 8-(4-bicyclo[2.2.2]octyl)-8H-thieno[3,4]pyrrolo[1,5-a]imidazole] stands 0.518 µM.
Under `c1cc2c(s1)C(C13CCC(CC1)CC3)n1cncc1-2` (single isomer, unassigned) [Example 49, 8-(4-bicyclo[2.2.2]octyl)-8H-thieno[3,4]pyrrolo[1,5-a]imidazole] stands above 10 µM; under `OC1CCCCC1C1c2sccc2-c2cncn21` (single isomer, unassigned) [Example 50, 2-(8H-thieno[3,4]pyrrolo[1,5-a]imidazol-8-yl)cyclohexanol], above 10 µM; under `OC1CCCCC1C1c2sccc2-c2cncn21` (single isomer, unassigned) [Example 51, 2-(8H-thieno[3,4]pyrrolo[1,5-a]imidazol-8-yl)cyclohexanol], above 10 µM.
In the case of `OC1CCCCC1C1c2sccc2-c2cncn21` (single isomer, unassigned) [Example 52, 2-(8H-thieno[3,4]pyrrolo[1,5-a]imidazol-8-yl)cyclohexanol], the IC50 is 0.676 µM.
To `c1ccc2c(c1)CCC(C1c3sccc3-c3cncn31)C2` (single isomer, unassigned) [Example 54, 8-tetrahydronaphthalen-2-yl-8H-thieno[3,4]pyrrolo[1,5-a]imidazole] belongs above 10 µM; to `c1ccc2c(c1)CCC(C1c3sccc3-c3cncn31)C2` (single isomer, unassigned) [Example 55, 8-tetrahydronaphthalen-2-yl-8H-thieno[3,4]pyrrolo[1,5-a]imidazole], above 10 µM; to `c1ccc2c(c1)CCC(C1c3sccc3-c3cncn31)C2` (single isomer, unassigned) [Example 56, 8-tetrahydronaphthalen-2-yl-8H-thieno[3,4]pyrrolo[1,5-a]imidazole], 0.851 µM.
Under `c1ccc2c(c1)CCC(C1c3sccc3-c3cncn31)C2` (single isomer, unassigned) [Example 57, 8-tetrahydronaphthalen-2-yl-8H-thieno[3,4]pyrrolo[1,5-a]imidazole] stands 0.886 µM.
Under `OC1CC(C2c3sccc3-c3cncn32)C1` (single isomer, unassigned) [Example 58, 3-(8H-thieno[3,4]pyrrolo[1,5-a]imidazol-8-yl)cyclobutanol] stands 2.1 µM.
Take `OC1CC(C2c3sccc3-c3cncn32)C1` (single isomer, unassigned) [Example 59, 3-(8H-thieno[3,4]pyrrolo[1,5-a]imidazol-8-yl)cyclobutanol]: the IC50 is above 10 µM.
Turning to `OC1CC(C2c3sccc3-c3cncn32)C1` (single isomer, unassigned) [Example 60, 3-(8H-thieno[3,4]pyrrolo[1,5-a]imidazol-8-yl)cyclobutanol], the IC50 is above 10 µM.
